Assay results reported in patent US10759783B2, “Biaryl inhibitors of Bruton'S tyrosine kinase” (BIOGEN MA INC., priority 2013, dated 2020).
pIC50: −log10 of the molar value. Where two headings read alike, the source gives them in different places.

Experiments:
BTK enzyme = target: T1, BTK enzyme (Homo sapiens, UniProt Q06187); test: In vitro BTK kinase assay: BTK-POLYGAT-LS assay; assay type: biochemical; settings: ATP 10 μM, read-out: IC50 (10uMATP)
T1 construct: purchased Upstate 14-552
Outline: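 Human BTK activity was measured with final 10 μM ATP and 100 nM polyGAT substrate in pH 7.5 Tris buffer with 10 mM MgCl2, DTT, Triton X-100 and casein.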

[1] = target: BTK (phospho-BTK) in human whole blood (Homo sapiens, UniProt Q06187); test: In vitro PD assay in human whole blood (pBTK assay)
Chain of BTK (phospho-BTK) in human whole blood (Q06187 whole entry): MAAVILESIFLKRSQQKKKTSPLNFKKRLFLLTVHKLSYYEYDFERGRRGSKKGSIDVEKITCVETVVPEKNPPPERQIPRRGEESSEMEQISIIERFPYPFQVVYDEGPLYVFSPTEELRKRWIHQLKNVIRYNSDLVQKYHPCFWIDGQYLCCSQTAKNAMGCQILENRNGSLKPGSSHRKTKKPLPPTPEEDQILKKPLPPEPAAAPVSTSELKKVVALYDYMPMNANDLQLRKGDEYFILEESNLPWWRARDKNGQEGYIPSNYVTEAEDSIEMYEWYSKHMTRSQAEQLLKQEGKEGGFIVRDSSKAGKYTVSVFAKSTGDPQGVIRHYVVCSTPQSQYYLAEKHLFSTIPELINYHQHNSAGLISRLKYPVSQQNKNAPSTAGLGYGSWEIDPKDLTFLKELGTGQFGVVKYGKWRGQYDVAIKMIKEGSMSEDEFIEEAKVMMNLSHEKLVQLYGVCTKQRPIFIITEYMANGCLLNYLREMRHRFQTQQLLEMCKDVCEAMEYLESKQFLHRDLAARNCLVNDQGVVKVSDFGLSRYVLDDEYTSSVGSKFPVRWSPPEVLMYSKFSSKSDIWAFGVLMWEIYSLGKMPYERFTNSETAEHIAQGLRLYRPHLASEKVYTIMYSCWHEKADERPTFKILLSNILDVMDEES

T1 sequence (Q06187 whole entry): as above

| Compound | pIC50 (BTK enzyme) | pIC50 ([1]; read-out: pBTK IC50, human whole blood, 37° C. for 30 min) | pIC50 [1] |
| --- | --- | --- | --- |
| Cc1cc(-c2ccnc(Nc3cnn([C@@H]4CCNC[C@H]4F)c3)n2)ccc1CNC(=O)N1CC(OC(C)C)C1 (relative stereo) [Example I-220] | > 8.00 | > 6.30 |  |
| Cc1cc(-c2ccnc(Nc3cnn(C4CCC(C(=O)O)CC4)c3)n2)ccc1CNC(=O)c1cnn(C(C)(C)C)c1 (stereo in doubt) [Example I-195, cis-4-(4-((4-(4-((1-(tert-butyl)-1H-pyrazole-4-carboxamido)methyl)-3-methylphenyl)pyrimidin-2-yl)amino)-1H-pyrazol-1-yl)cyclohexanecarboxylic acid] | > 8.00 |  | > 6.30 |
| Cc1cc(-c2ccnc(Nc3cnn(C)c3)n2)ccc1CNC(=O)c1cnc(C(C)(C)C)s1 [Example I-1, 2-(tert-butyl)-N-(2-methyl-4-(2-((1-methyl-1H-pyrazol-4-yl)amino)pyrimidin-4-yl)benzyl)thiazole-5-carboxamide] | > 8.00 |  | > 6.30 |
| Cc1cc(-c2ccnc(Nc3cnn(C)c3)n2)ccc1CNC(=O)c1cc2c(s1)CCNC2 [Example I-2, N-(2-methyl-4-(2-((1-methyl-1H-pyrazol-4-yl)amino)pyrimidin-4-yl)benzyl)-4,5,6,7-tetrahydrothieno[3,2-c]pyridine-2-carboxamide] | > 8.00 |  | 5.82 to 6.30 |
| Cc1cc(-c2ccnc(Nc3cnn(C)c3)n2)ccc1CNC(=O)c1cc2c(s1)CCOC2 [Example I-3, N-(2-methyl-4-(2-((1-methyl-1H-pyrazol-4-yl)amino)pyrimidin-4-yl)benzyl)-6,7-dihydro-4H-thieno[3,2-c]pyran-2-carboxamide] | > 8.00 |  | 5.00 to 5.82 |
| Cc1cc(-c2ccnc(Nc3cnn(C)c3)n2)ccc1CNC(=O)c1cnc(C(F)(F)F)s1 [Example I-4, N-(2-methyl-4-(2-((1-methyl-1H-pyrazol-4-yl)amino)pyrimidin-4-yl)benzyl)-2-(trifluoromethyl)thiazole-5-carboxamide] | > 8.00 |  | 5.00 to 5.82 |
| Cc1cc(-c2ccnc(Nc3cnn(C)c3)n2)ccc1CNC(=O)c1cc2c(s1)CCCC2 [Example I-5, N-(2-methyl-4-(2-((1-methyl-1H-pyrazol-4-yl)amino)pyrimidin-4-yl)benzyl)-4,5,6,7-tetrahydrobenzo[b]thiophene-2-carboxamide] | > 8.00 |  | 5.82 to 6.30 |
| Cc1cc(-c2ccnc(Nc3cnn(C)c3)n2)ccc1CNC(=O)c1ccc(C(C)(C)C)cn1 [Example I-6, 5-(tert-butyl)-N-(2-methyl-4-(2-((1-methyl-1H-pyrazol-4-yl)amino)pyrimidin-4-yl)benzyl)picolinamide] | > 8.00 |  | 5.82 to 6.30 |
| Cc1cc(-c2ccnc(Nc3cnn(C)c3)n2)ccc1CNC(=O)c1ccc(C(C)(C)C)cc1 [Example I-7, 4-(tert-butyl)-N-(2-methyl-4-(2-((1-methyl-1H-pyrazol-4-yl)amino)pyrimidin-4-yl)benzyl)benzamide] | > 8.00 |  | 5.82 to 6.30 |
| Cc1cc(-c2ccnc(Nc3cnn(C)c3)n2)ccc1CNC(=O)c1nc2c(s1)CCCC2 [Example I-9, N-(2-methyl-4-(2-((1-methyl-1H-pyrazol-4-yl)amino)pyrimidin-4-yl)benzyl)-4,5,6,7-tetrahydrobenzo[d]thiazole-2-carboxamide] | > 8.00 |  | 5.82 to 6.30 |
| Cc1cc(-c2ccnc(Nc3cnn(C)c3)n2)ccc1CNC(=O)c1nc2c(s1)CCC2 [Example I-10, N-(2-methyl-4-(2-((1-methyl-1H-pyrazol-4-yl)amino)pyrimidin-4-yl)benzyl)-5,6-dihydro-4H-cyclopenta[d]thiazole-2-carboxamide] | > 8.00 |  | > 6.30 |
| Cc1cc(-c2ccnc(Nc3cnn(C)c3)n2)ccc1CN1Cc2nc(C(C)(C)C)sc2C1=O [Example I-12, 2-(tert-butyl)-5-(2-methyl-4-(2-((1-methyl-1H-pyrazol-4-yl)amino)pyrimidin-4-yl)benzyl)-4H-pyrrolo[3,4-d]thiazol-6(5H)-one] | > 8.00 |  | > 6.30 |
| Cc1cc(-c2ccnc(Nc3cnn(C)c3)n2)ccc1CN1Cc2cc(C3CC3)sc2C1=O [Example I-13, 2-cyclopropyl-5-(2-methyl-4-(2-((1-methyl-1H-pyrazol-4-yl)amino)pyrimidin-4-yl)benzyl)-4H-thieno[2,3-c]pyrrol-6(5H)-one] | > 8.00 |  | 5.00 to 5.82 |
| Cc1cc(-c2ccnc(Nc3cnn(C)c3)n2)ccc1CNC(=O)c1cc2c(s1)CCCO2 [Example I-15, N-(2-methyl-4-(2-((1-methyl-1H-pyrazol-4-yl)amino)pyrimidin-4-yl)benzyl)-6,7-dihydro-5H-thieno[3,2-b]pyran-2-carboxamide] | > 8.00 |  | > 6.30 |
| Cc1cc(-c2ccnc(Nc3cnn(C)c3)n2)ccc1CNC(=O)N1CCC(C(F)(F)F)CC1 [Example I-19, N-(2-methyl-4-(2-((1-methyl-1H-pyrazol-4-yl)amino)pyrimidin-4-yl)benzyl)-4-(trifluoromethyl)piperidine-1-carboxamide] | > 8.00 |  | 5.82 to 6.30 |
| Cc1cc(-c2ccnc(Nc3cnn(C)c3)n2)ccc1CNC(=O)N1CCC(C(C)(C)C)CC1 [Example I-20, 4-(tert-butyl)-N-(2-methyl-4-(2-((1-methyl-1H-pyrazol-4-yl)amino)pyrimidin-4-yl)benzyl)piperidine-1-carboxamide] | > 8.00 |  | 5.82 to 6.30 |
| Cc1cc(-c2ccnc(Nc3cnn(C)c3)n2)ccc1CNC(=O)N1CCN(C(C)(C)C)CC1 [Example I-23, 4-(tert-butyl)-N-(2-methyl-4-(2-((1-methyl-1H-pyrazol-4-yl)amino)pyrimidin-4-yl)benzyl)piperazine-1-carboxamide] | 6.00 to 7.00 |  | 5.00 to 5.82 |
| Cc1cc(-c2ccnc(Nc3cnn(C)c3)n2)ccc1CNC(=O)N1CCOC(C(C)C)C1 (centres unmarked) [Example I-24, 2-isopropyl-N-(2-methyl-4-(2-((1-methyl-1H-pyrazol-4-yl)amino)pyrimidin-4-yl)benzyl)morpholine-4-carboxamide] | 7.00 to 8.00 |  | 5.00 to 5.82 |
| Cc1cc(-c2ccnc(Nc3cn[nH]c3)n2)ccc1CNC(=O)c1cnc(C(C)(C)C)s1 [Example I-36, N-(4-(2-((1H-pyrazol-4-yl)amino)pyrimidin-4-yl)-2-methylbenzyl)-2-(tert-butyl)thiazole-5-carboxamide] | > 8.00 |  | > 6.30 |
| Cc1cc(-c2ccnc(Nc3cnn(CCO)c3)n2)ccc1CNC(=O)c1cnc(C(C)(C)C)s1 [Example I-37, 2-(tert-butyl)-N-(4-(2-((1-(2-hydroxyethyl)-1H-pyrazol-4-yl)amino)pyrimidin-4-yl)-2-methylbenzyl)thiazole-5-carboxamide] | > 8.00 |  | > 6.30 |
| Cc1cc(-c2ccnc(Nc3cnn(C4CCOCC4)c3)n2)ccc1CNC(=O)c1cnc(C(C)(C)C)s1 [Example I-38, 2-(tert-butyl)-N-(2-methyl-4-(2-((1-(tetrahydro-2H-pyran-4-yl)-1H-pyrazol-4-yl)amino)pyrimidin-4-yl)benzyl)thiazole-5-carboxamide] | > 8.00 |  | 5.82 to 6.30 |
| COCCn1cc(Nc2nccc(-c3ccc(CNC(=O)c4cnc(C(C)(C)C)s4)c(C)c3)n2)cn1 [Example I-39, 2-(tert-butyl)-N-(4-(2-((1-(2-methoxyethyl)-1H-pyrazol-4-yl)amino)pyrimidin-4-yl)-2-methylbenzyl)thiazole-5-carboxamide] | > 8.00 |  | > 6.30 |
| CCn1cc(Nc2nccc(-c3ccc(CNC(=O)c4cnc(C(C)(C)C)s4)c(C)c3)n2)cn1 [Example I-40, 2-(tert-butyl)-N-(4-(2-((1-ethyl-1H-pyrazol-4-yl)amino)pyrimidin-4-yl)-2-methylbenzyl)thiazole-5-carboxamide] | > 8.00 |  | > 6.30 |
| Cc1cc(-c2ccnc(Nc3cnn(C(C)C)c3)n2)ccc1CNC(=O)c1cnc(C(C)(C)C)s1 [Example I-41, 2-(tert-butyl)-N-(4-(2-((1-isopropyl-1H-pyrazol-4-yl)amino)pyrimidin-4-yl)-2-methylbenzyl)thiazole-5-carboxamide] | > 8.00 |  | > 6.30 |
| Cc1cc(-c2ccnc(Nc3cnn(C4CNC4)c3)n2)ccc1CNC(=O)c1cnc(C(C)(C)C)s1 [Example I-42, N-(4-(2-((1-(azetidin-3-yl)-1H-pyrazol-4-yl)amino)pyrimidin-4-yl)-2-methylbenzyl)-2-(tert-butyl)thiazole-5-carboxamide] | > 8.00 |  | > 6.30 |
| Cc1cc(-c2ccnc(Nc3cnn(C4CN(C)C4)c3)n2)ccc1CNC(=O)c1cnc(C(C)(C)C)s1 [Example I-43, 2-(tert-butyl)-N-(2-methyl-4-(2-((1-(1-methylazetidin-3-yl)-1H-pyrazol-4-yl)amino)pyrimidin-4-yl)benzyl)thiazole-5-carboxamide] | > 8.00 |  | > 6.30 |
| Cc1cc(-c2ccnc(Nc3cnn(C4CC(C(=O)O)C4)c3)n2)ccc1CNC(=O)c1cnc(C(C)(C)C)s1 (centres unmarked) [Example I-44, 3-(4-((4-(4-((2-(tert-butyl)thiazole-5-carboxamido)methyl)-3-methylphenyl)pyrimidin-2-yl)amino)-1H-pyrazol-1-yl)cyclobutanecarboxylic acid] | > 8.00 |  | > 6.30 |
| Cn1cc(Nc2nccc(-c3ccc4c(c3)CCCCC4NC(=O)c3cnn(C(C)(C)C)c3)n2)cn1 (centres unmarked) [Example I-257, 1-tert-butyl-N-[2-[2-[(1-methylpyrazol-4-yl)amino]pyrimidin-4-yl]-6,7,8,9-tetrahydro-5H-benzo[7]annulen-5-yl]pyrazole-4-carboxamide] |  |  | > 6.30 |
| [2H]C([2H])([2H])C(OC1CN(C(=O)NCc2ccc(-c3ccnc(Nc4cnn(CC)c4)n3)cc2C)C1)C([2H])([2H])[2H] [Example I-262, N-[[4-[2-[(1-ethylpyrazol-4-yl)amino]pyrimidin-4-yl]-2-methyl-phenyl]methyl]-3-(1,1,1,3,3,3-d6)isopropoxy-azetidine-1-carboxamide] |  |  | > 6.30 |
